Reference: patent EP3241555A1, “USE OF PYROPHOSPHATE ION ANALOGUES FOR THE TREATMENT OF HPV INFECTION” (Agencia Pública Empresarial Sanitaria Costa Del Sol, priority 2014, dated 2016)
“And” between values parts separate entries of the source, which are not always exact repeats. Equal entries are not always repeated.

Assays:
[1] = target: HIV reverse transcriptase (HIV, RT) (Human immunodeficiency virus type 1 group M subtype B, UniProt P04585); details: read-out: ID50; cited from earlier work
HPV [2] = details: used topically, master formulation as a cream; different types of viral warts; cited from earlier work
HPV [3] = experiment: Expanded trial in 28 patients with warts treated with topical foscarnet; assay type: in vivo, human
Method: A total of 28 patients, from which 64.3% are female patients and 35.7% male patients to whom treatment was administered, were studied. The mean age was […] (6-64) and with a median age of 16 years.
It is important to point out that 96.4% of the patients had received prior treatments without any results, where the most common treatments are cryotherapy involving 78.6% of said patients and topical keratolytic drugs involving 67.9% of them.
Most of the patients (71.4%) applied the treatment 2 times a day and in 78.6% of the cases, the area of application was banded for the night. The rest of the patients applied the treatment 1 or 3 times/day.
The mean duration of the treatment was 11.57 (3-28) weeks.

O=C(O)P(=O)(O)O [Trisodium phosphonoformate]
IC50 [1]: ~1 µM

Nc1ccn(C[C@@H](CO)OCP(=O)(O)O)c(=O)n1 [cidofovir]
cure rates (HPV [2]): high cure rates

O=C(O)P(=O)(O)O [foscarnet, phosphonoformic acid]
Adverse effects to treatment: No, Percentage (HPV [3]; 28 patients): 89.3%
Adverse effects to treatment: No, Percentage valid (HPV [3]; 28 patients): 89.3%
Adverse effects to treatment: Yes, Percentage valid (HPV [3]; 28 patients): 10.7%
Response to treatment: Complete, Percentage (HPV [3]; 28 patients): 39.3%
Response to treatment: Complete, Percentage valid (HPV [3]; 28 patients): 39.3%
Response to treatment: No, Percentage (HPV [3]; 28 patients): 28.6%
Response to treatment: No, Percentage valid (HPV [3]; 28 patients): 28.6%
Response to treatment: Partial, Percentage (HPV [3]; 28 patients): 32.1%
Response to treatment: Partial, Percentage valid (HPV [3]; 28 patients): 32.1%
percentage of response (HPV [3]; 28 patients, full plus partial response): 71.4%
Adverse effects to treatment: Yes, Percentage (HPV [3]; 28 patients, very mild localized adverse effects (erythema or slight irritation/itch)): 10.7%
Time effect starts (weeks), Maximum (HPV [3]; N valid 28): 16 weeks
Time effect starts (weeks), Mean (HPV [3]; N valid 28): 5.25 (± 4.98) weeks and 5.25 weeks
Time effect starts (weeks), Median (HPV [3]; N valid 28): 4.00 weeks
Time effect starts (weeks), Minimum (HPV [3]; N valid 28): 0 weeks
Adverse effects to treatment: No, Frequency (HPV [3]; number of patients out of 28): 25
Response to treatment: Complete, Frequency (HPV [3]; number of patients out of 28): 11
Response to treatment: No, Frequency (HPV [3]; number of patients out of 28): 8
Response to treatment: Partial, Frequency (HPV [3]; number of patients out of 28): 9
Recurrence: No, Frequency (HPV [3]; number of patients out of 28, 1 lost): 27
Adverse effects to treatment: Yes, Frequency (HPV [3]; number of patients out of 28, very mild localized adverse effects (erythema or slight irritation/itch)): 3
Recurrence: No, Percentage valid (HPV [3]; of 27 valid patients): 100.0%
Recurrence: No, Percentage (HPV [3]; of 28 patients, 1 lost): 96.4%
